Measured values reported in patent US20080293727A1, “Novel sulfonamide inhibitors of aspartyl protease” (priority 1992, published 2008).

Biological target: HIV-1 protease (Human immunodeficiency virus type 1 group M subtype B, UniProt P04585)
Assay: Inhibition constants against HIV-1 protease (method of Pennington et al.)
Format: biochemical
Settings: HIV-1 protease; read-out: Ki value
Description: We measured the inhibition constants of the compounds listed in Table VII against HIV-1 protease using the above-cited method of Pennington et al.

| SMILES | Ki [nM] |
| --- | --- |
| NC(=O)C[C@H](NC(=O)c1ccc2ccccc2n1)C(=O)N[C@@H](Cc1ccccc1)[C@H](O)CN(Cc1ccccc1)S(=O)(=O)c1ccccc1 [Compound 1] | 4 |
| Cc1noc(C)c1S(=O)(=O)N(Cc1ccccc1)C[C@@H](O)[C@H](Cc1ccccc1)NC(=O)[C@H](CC(N)=O)NC(=O)c1ccc2ccccc2n1 [Compound 3] | 32 |
| NC(=O)C[C@H](NC(=O)c1ccc2ccccc2n1)C(=O)N[C@@H](Cc1ccccc1)[C@H](O)CN(Cc1ccccc1)S(=O)(=O)c1cccc(C(F)(F)F)c1 [Compound 4] | 19 |
| CC(=O)Nc1nc(C)c(S(=O)(=O)N(Cc2ccccc2)C[C@@H](O)[C@H](Cc2ccccc2)NC(=O)[C@H](CC(N)=O)NC(=O)c2ccc3ccccc3n2)s1 [Compound 5] | 2 |
| NC(=O)C[C@H](NC(=O)c1ccc2ccccc2n1)C(=O)N[C@@H](Cc1ccccc1)[C@H](O)CN(Cc1ccccc1)S(=O)(=O)c1ccc(-c2ccon2)s1 [Compound 6, (S)-N-1-(1-Benzyl-3-(benzyl-(5-isoxazol-3-yl-thiophene-2-sulfonyl)-amino)-(1S,2 syn)-1-benzyl-2-hydroxy-propyl)-2-((quinoline-2-carbonyl)-amino)-succinamide] | 3 |
| NC(=O)C[C@H](NC(=O)c1ccc2ccccc2n1)C(=O)N[C@@H](Cc1ccccc1)[C@H](O)CN(Cc1ccccc1)S(=O)(=O)c1cccc(C(=O)O)c1 [Compound 7] | 8 |
| CS(=O)(=O)N(Cc1ccccc1)C[C@@H](O)[C@H](Cc1ccccc1)NC(=O)[C@H](CC(N)=O)NC(=O)c1ccc2ccccc2n1 [Compound 8] | 850 |
| NC(=O)C[C@H](NC(=O)c1ccc2ccccc2n1)C(=O)N[C@@H](Cc1ccccc1)[C@H](O)CN(Cc1ccccc1)S(=O)(=O)c1cccc2nonc12 [Compound 9, (S)-N-1-(3-((Benzo(1,2,5)oxadiazole-4-sulfonyl)-benzyl-amino)-(1S,2 syn)-1-benzyl-2-hydroxy-propyl)-2-((quinoline-2-carbonyl)-amino)-succinamide] | 4 |
| NC(=O)C[C@H](NC(=O)c1ccc2ccccc2n1)C(=O)N[C@@H](Cc1ccccc1)[C@H](O)CN(Cc1ccccc1)S(=O)(=O)c1cccc(S(N)(=O)=O)c1 [Compound 10, N-1-(1-(S)-Benzyl-3-(benzyl-(3-sulfamoyl-benzenesulfonyl)-amino)-2-(syn)-hydroxy-propyl)-2-((quinoline-2-carbonyl)-amino)-succinamide] | 4 |
| CN(C)S(=O)(=O)N(Cc1ccccc1)C[C@@H](O)[C@H](Cc1ccccc1)NC(=O)[C@H](CC(N)=O)NC(=O)c1ccc2ccccc2n1 [Compound 11] | 34 |
| CC(C)CN(C[C@@H](O)[C@H](Cc1ccccc1)NC(=O)[C@H](CC(N)=O)NC(=O)c1ccc2ccccc2n1)S(=O)(=O)c1cc(S(=O)(=O)c2ccccc2)cs1 [Compound 13, (S)-N-1-(3-((4-Benzenesulfonyl-thiophene-2-sulfonyl)-isobutyl-amino)-(1S,2 syn)-1-benzyl-2-hydroxy-propyl)-2-((quinoline-2-carbonyl)-amino)-succinamide] | 0.2 |
| CC(C)CN(C[C@@H](O)[C@H](Cc1ccccc1)NC(=O)[C@H](CC(N)=O)NC(=O)c1ccc2ccccc2n1)S(=O)(=O)c1ccc(F)cc1 [Compound 14, (S)-N-1-(1-(S)-Benzyl-3-((4-fluoro-benzenesulfonyl)-isobutyl-amino)-2-(syn)-hydroxy-propyl)-2-((quinoline-2-carbonyl)-amino)-succinamide] | 0.1 |
| CC(=O)Nc1ccc(S(=O)(=O)N(CC(C)C)C[C@@H](O)[C@H](Cc2ccccc2)NC(=O)[C@H](CC(N)=O)NC(=O)c2ccc3ccccc3n2)cc1F [Compound 15, (S)-N-1-(3-((4-Acetylamino-3-fluoro-benzenesulfonyl)-isobutyl-amino)-(1S,2 syn)-1-benzyl-2-hydroxy-propyl)-2-((quinoline-2-carbonyl)-amino)-succinamide] | < 0.1 |
| CC(=O)Nc1cc(S(=O)(=O)N(CC(C)C)C[C@@H](O)[C@H](Cc2ccccc2)NC(=O)[C@H](CC(N)=O)NC(=O)c2ccc3ccccc3n2)ccc1F [Compound 16, (S)-N-1-(3-((3-Acetylamino-4-fluoro-benzenesulfonyl)-isobutyl-amino)-(1S,2 syn)-1-benzyl-2-hydroxy-propyl)-2-((quinoline-2-carbonyl)-amino)-succinamide] | < 0.1 |
| CC(=O)Nc1ccc(S(=O)(=O)N(CC(C)C)C[C@@H](O)[C@H](Cc2ccccc2)NC(=O)[C@H](CC(N)=O)NC(=O)c2ccc3ccccc3n2)cc1 [Compound 17, (S)-N-1-(1-(S)-Benzyl-3-((4-acetylamino-benzenesulfonyl)-isobutyl-amino)-2-(syn)-hydroxy-propyl)-2-((quinoline-2-carbonyl)-amino)-succinamide] | < 0.1 |
| CC(=O)Nc1nc(C)c(S(=O)(=O)N(CC(C)C)C[C@@H](O)[C@H](Cc2ccccc2)NC(=O)[C@H](CC(N)=O)NC(=O)c2ccc3ccccc3n2)s1 [Compound 18] | < 0.1 |
| CC(=O)Nc1cccc(S(=O)(=O)N(CC(C)C)C[C@@H](O)[C@H](Cc2ccccc2)NC(=O)[C@H](CC(N)=O)NC(=O)c2ccc3ccccc3n2)c1 [Compound 19, (S)-N-1-(3-((3-Acetylamino-benzenesulfonyl)-isobutyl-amino)-(1S,2 syn)-1-benzyl-2-hydroxy-propyl)-2-((quinoline-2-carbonyl)-amino)-succinamide] | < 0.1 |
| CC(C)CN(C[C@@H](O)[C@H](Cc1ccccc1)NC(=O)[C@H](CC(N)=O)NC(=O)c1ccc2ccccc2n1)S(=O)(=O)c1cccc2nonc12 [Compound 20, (S)-N-1-(3-((Benzo(1,2,5)oxadiazole-4-sulfonyl)-isobutyl-amino)-(1S,2 syn)-1-benzyl-2-hydroxy-propyl)-2-((quinoline-2-carbonyl)-amino)-succinamide] | 0.1 |
| CC(C)CN(C[C@@H](O)[C@H](Cc1ccccc1)NC(=O)[C@H](CC(N)=O)NC(=O)c1ccc2ccccc2n1)S(=O)(=O)N(C)C [Compound 21, N-1-((1S-2 syn)-1-Benzyl-2-hydroxy-3-(1-isobutyl-3,3-dimethylsulfonylurea)-propyl)-2-((quinoline-2-carbonyl)-amino)-succinamide] | 0.7 |
| CC(=O)Nc1ccc(S(=O)(=O)N(CC(C)C)C[C@@H](O)[C@H](Cc2ccccc2)NC(=O)[C@@H](NC(=O)OCc2ccccn2)C(C)C)cc1 [Compound 22] | 1 |

| SMILES | Ki [nM] |
| --- | --- |
| CC(C)CN(C[C@@H](O)[C@H](Cc1ccccc1)NC(=O)[C@@H](NC(=O)OCc1ccccn1)C(C)C)S(=O)(=O)N(C)C [Compound 24] | 32500 |
| CC(C)CN(C[C@@H](O)[C@H](Cc1ccccc1)NC(=O)[C@@H](NC(=O)OCc1cccnc1)C(C)C)S(=O)(=O)c1cccc2nonc12 [Compound 25] | 3000 |
| C=CCOC(=O)N[C@@H](Cc1ccccc1)[C@H](O)CN(CC(C)C)S(=O)(=O)c1ccc(NC(C)=O)cc1 [Compound 27] | 8 |
| CC(=O)Nc1ccc(S(=O)(=O)N(CC(C)C)C[C@@H](O)[C@H](Cc2ccccc2)NC(=O)OCC(C)C)cc1 [Compound 28] | 17 |
| CC(=O)Nc1ccc(S(=O)(=O)N(CC(C)C)C[C@@H](O)[C@H](Cc2ccccc2)NC(=O)OC(C)C)cc1 [Compound 29] | 17 |
| CC(=O)Nc1ccc(S(=O)(=O)N(CC(C)C)C[C@@H](O)[C@H](Cc2ccccc2)NC(=O)OCCN2CCCC2=O)cc1 [Compound 30] | 61 |
| CC(C)CN(C[C@@H](O)[C@H](Cc1ccccc1)NC(=O)OC(C)(C)C)S(=O)(=O)c1ccc(F)cc1 [Compound 32] | 2.5 |
| CC(=O)Nc1ccc(S(=O)(=O)N(CC(C)C)C[C@@H](O)[C@H](Cc2ccccc2)NC(=O)NCc2ccccc2)cc1 [Compound 33] | 80 |
| COCCOC(=O)N[C@@H](Cc1ccccc1)[C@H](O)CN(CC(C)C)S(=O)(=O)c1ccc(NC(C)=O)cc1 [Compound 34] | 17 |
| CC(C)CN(C[C@@H](O)[C@H](Cc1ccccc1)NC(=O)O[C@H]1CCOC1)S(=O)(=O)c1ccc(F)cc1 [Compound 35, 4-Fluoro-N-((2 syn,3S)-2-hydroxy-4-phenyl-3-((S)-tetrahydrofuran-3-yloxycarbonylamino)-butyl)-N-isobutyl-benzenesulfonamide] | 4 |
| C=CCCOC(=O)N[C@@H](Cc1ccccc1)[C@H](O)CN(CC(C)C)S(=O)(=O)c1ccc(NC(C)=O)cc1 [Compound 36] | 19 |
| CC(C)CN(C[C@@H](O)[C@H](Cc1ccccc1)NC(=O)O[C@H]1CCOC1)S(=O)(=O)c1ccc(Cl)c(Cl)c1 [Compound 37, 3,4-Dichloro-N-((2 syn,3S)-2-hydroxy-4-phenyl-3-((S)-tetrahydrofuran-3-yloxycarbonylamino)-butyl)-N-isobutyl-benzenesulfonamide] | 0.1 |
| CC(C)CN(C[C@@H](O)[C@H](Cc1ccccc1)NC(=O)OCc1ccccc1)S(=O)(=O)c1ccc(F)cc1 [Compound 38] | 1.5 |
| CC(=O)Nc1ccc(S(=O)(=O)N(CC(C)C)C[C@@H](O)[C@H](Cc2ccccc2)NC(=O)OC(C)(C)C)cc1 [Compound 39] | 17 |
| CC(=O)Nc1ccc(S(=O)(=O)N(CC(C)C)C[C@@H](O)[C@H](Cc2ccccc2)NC(=O)[C@@H]2CC(=O)NC(=O)N2)cc1 [Compound 40] | 1100 |
| CC(=O)Nc1ccc(S(=O)(=O)N(CC(C)C)C[C@@H](O)[C@H](Cc2ccccc2)NC(=O)C(=O)NC(C)(C)C)cc1 [Compound 41] | 220 |
| CC(=O)Nc1ccc(S(=O)(=O)N(CC(C)C)C[C@@H](O)[C@H](Cc2ccccc2)NC(=O)CCC(N)=O)cc1 [Compound 42] | 46 |
| CC(=O)Nc1ccc(S(=O)(=O)N(CC(C)C)C[C@@H](O)[C@H](Cc2ccccc2)NC(=O)[C@@H]2CCC(=O)N2)cc1 [Compound 43] | 4200 |
| CC(=O)Nc1ccc(S(=O)(=O)N(CC(C)C)C[C@@H](O)[C@H](Cc2ccccc2)NC(=O)OCc2cccnc2)cc1 [Compound 44, N-(4-(((2 syn,3S)-2-Hydroxy-4-phenyl-3-(pyridin-3-yl-methoxycarbonylamino)-butyl)-isobutyl-sulfamoyl)-phenyl)-acetamide] | 5 |
| CC(C)CN(C[C@@H](O)[C@H](Cc1ccccc1)NC(=O)OC(C)(C)C)S(=O)(=O)c1ccccc1 [Compound 45] | 6 |
